Several values for one entry are separate records, joined by “and”; a condition that tells them apart may be missing. Equal entries are not always repeated.
System: cos-7 cells
Experiment: DNA transfection: luciferase expression relative to Lipofectamine 2000
Type: cell-based
Details: 300 ng Luciferase DNA per well, luciferase assay after 48 hours
Experimental: 14,000 cos-7 cells (ATCC, Manassas, Va.) were seeded into each well of a solid white or clear 96 well plate (Corning-Costar, Kennebunk, Me.) and allowed to attached overnight in growth medium, composed of: 500 ml phenol red minus DMEM, 50 ml heat inactivated FBS, 5 ml penicillin/streptomycin (Invitrogen, Carlsbad, Calif.).
A small liquot of lipid was tranferred to an Eppendorf tube. Based on the mass of the lipid in the tube, sterile 25 mM sodium acetate buffer was added to each tube to yield a concentration of 60 mg/ml. The resulting mixture was vortexed for approximately 20 minutes until the lipid was fully dissolved. DNA was prepared based on 300 ng DNA per well of a 96-well plate. 291 μg of Lc DNA was dissolved in 9210 μl of 25 mM sodium acetate buffer. Aliquots of 30 μl of DNA solution were added to each well expect for the last column which was reserved for the Lipo2000 standard. For the last column of the plate, 61 μg of DNA was added to 1940 μl Optimem. 150 μl of media/Optimem was added to each well of plates. 50 μl of lipid solution was aliquoted into wells of robot plate. The following amounts were aliquoted to obtain the correct ratios of DNA to lipid:
In quadruplicate, 30 μl of lipid was aliquoted onto DNA in four rows for each ratio. For the Lipo2000 control (2.5 w/w ratio to DNA), 152.5 μg of Lipo sample was aliquoted into 1847.5 μl of Optimem. 30 μl of this solution was aliquoted onto DNA in the Optimem in the last columns of each plate. The plates were incubated for 15-20 minutes, and then 36.5 μl of lipid+DNA complexes was transferred into 150 μl of media/Optimem, then add to cells. The media was aspirated off the cells, and 105 μl of the lipid/DNA/media/Optimem solution was added to the cells. The luciferase assay was performed after 48 hours.
Luminescence was analyzed using bright-glo assay kits (Promega). Briefly, 100 μl of bright-glo solution was added to each well of the microtiter plate containing media and cells. Luminescence was measured using a Mithras Luminometer (Berthold, Oak Ridge, Tenn.). In some cases, a neutral density filter (Chroma, Brattleboro, Vt.) was used to prevent saturation of the luminometer. A standard curve for Luciferase was generated by titration of Luciferase enzyme (Promega) into growth media in white microtiter plates. Luciferase in ng per well are calculated for each of the lipids at 2.5 w/w, 5 w/w, 10 w/w, 15 w/w, 20 w/w, and 25 w/w lipid to DNA based on the standard curve.
The table below summarizes the data as a % of the luciferase activity obtained from the use of Lipofectamine 2000. The table indicates the best lipids for transfection.

SMILES | Luciferase expression as a percentage of that achieved using Lipofectamine 2000 (lipid/DNA 2.5 w/w) | Luciferase expression as a percentage of that achieved using Lipofectamine 2000 (lipid/DNA 5 w/w) | Luciferase expression as a percentage of that achieved using Lipofectamine 2000 (lipid/DNA 10 w/w) | Luciferase expression as a percentage of that achieved using Lipofectamine 2000 (lipid/DNA 15 w/w) | Luciferase expression as a percentage of that achieved using Lipofectamine 2000 (lipid/DNA 20 w/w) | Luciferase expression as a percentage of that achieved using Lipofectamine 2000 (lipid/DNA 25 w/w)
CCCCCCCCCCOC(=O)CCN(CC)CCN(CC)CCC(=O)OCCCCCCCCCC [LB61] | 0.1% | 0.1% | 0.1% | 0.1% | 0.1% | 0.1%
CCCCCCCCCCOC(=O)CCN(CCN(CCC(=O)OCCCCCCCCCC)C(C)C)C(C)C [LB62] | 0.1% | 0.1% | 0.1% | 0.1% | 0.1% | 0.1%
CCCCCCCCCCOC(=O)CCN(C)CCCN(C)CCC(=O)OCCCCCCCCCC [LB63] | 0.1% | 0.2% and 0.1% | 0.1% | 1.0% and 0.1% | 0.1% | 0.2% and 0.1%
CCCCCCCCCCOC(=O)CCN(CC)CCCN(CC)CCC(=O)OCCCCCCCCCC [LB64] | 0.1% | 0.1% | 0.2% and 0.1% | 0.1% | 0.1% | 0.2% and 0.1%
CCCCCCCCCCOC(=O)CCN1CCCN(CCC(=O)OCCCCCCCCCC)CC1 [LB70] | 0.1% | 0.1% | 0.1% | 0.1% | 0.1% | 0.1%
CCCCCCCCCCOC(=O)CCN(CCC(=O)OCCCCCCCCCC)CCN(CC)CC [LB75] | 0.1% | 0.1% | 0.1% | 0.1% | 0.1% | 0.1%
CCCCCCCCCCOC(=O)CCN(CCC(=O)OCCCCCCCCCC)CCN1CCCC1 [LB76] | 0.1% | 0.1% | 0.1% | 0.1% | 0.1% | 0.1%
CCCCCCCCCCOC(=O)CCN(CCC(=O)OCCCCCCCCCC)CCC1CCCN1C (centres unmarked) [LB77] | 0.1% | 0.1% | 0.1% | 0.2% | 0.1% | 0.3%
CCCCCCCCCCOC(=O)CCN(CCC(=O)OCCCCCCCCCC)C(C)CN(C)C (centres unmarked) [LB79] | 0.1% | 0.1% | 0.1% | 0.1% | 0.1% | 0.1%
CCCCCCCCCCOC(=O)CCN(CCCN(C)C)CCC(=O)OCCCCCCCCCC [LB80] | 0.7% | 0.8% | 0.1% | 0.2% | 1.0% | 1.5%
CCCCCCCCCCOC(=O)CCN(CCCN(CC)CC)CCC(=O)OCCCCCCCCCC [LB81] | 0.4% | 0.4% | 0.2% | 0.3% | 0.4% | 0.5%
CCCCCCCCCCCCOC(=O)CCN(CCCCO)CCC(=O)OCCCCCCCCCCCC [LD28] | – | – | 1.7% | 8.5% | – | –
CCCCCCCCCCCCOC(=O)CCN(CCN(CCC(=O)OCCCCCCCCCCCC)C(C)C)C(C)C [LD62] | 0.4% | 0.4% | 0.4% | 0.4% | 0.4% | 0.5%
CCCCCCCCCCCCOC(=O)CCN(C)CCCN(C)CCC(=O)OCCCCCCCCCCCC [LD63] | 0.7% | 0.8% | 0.3% | 0.3% | 0.4% | 0.6%
CCCCCCCCCCCCOC(=O)CCN1CCCN(CCC(=O)OCCCCCCCCCCCC)CC1 [LD70] | 0.1% | 0.1% | 0.6% | 0.6% | 0.6% | 0.6%
CCCCCCCCCCCCOC(=O)CCN(CCC(=O)OCCCCCCCCCCCC)CCN(CC)CC [LD75] | 0.1% | 0.1% | 0.1% | 0.2% | 0.2% | 0.2%
